PubChem BioAssay (NCI)
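Results reflect a 48-hour exposure of cells in 96-well plates to compound at five concentrations. Abbreviation: GI50, concentration required for 50% inhibition of growth. At the TGI there is no net growth.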

How the values were obtained:
Experiment in all cases: NCI-60 cell line screen, 48 h
[1] = test system: 786-0 renal
[2] = test system: A498 renal
[3] = test system: A549 NSCLC
[4] = test system: ACHN renal
[5] = test system: BT-549 breast
[6] = test system: CAKI-1 renal
[7] = test system: CCRF-CEM leukemia
[8] = test system: COLO 205 colon
[9] = test system: DU-145 prostate
[10] = test system: HCC-2998 colon
[11] = test system: HCT-116 colon
[12] = test system: HCT-15 colon
[13] = test system: HL-60(TB) leukemia
[14] = test system: HOP-62 NSCLC
[15] = test system: HOP-92 NSCLC
[16] = test system: HS 578T breast
[17] = test system: HT29 colon
[18] = test system: IGROV1 ovarian
[19] = test system: K-562 leukemia
[20] = test system: KM12 colon
[21] = test system: LOX IMVI melanoma
[22] = test system: MALME-3M melanoma
[23] = test system: MCF7 breast
[24] = test system: MDA-MB-231 breast
[25] = test system: MDA-MB-435
[26] = test system: MOLT-4 leukemia
[27] = test system: NCI-H226 lung
[28] = test system: NCI-H23 lung
[29] = test system: NCI-H460 lung
[30] = test system: NCI-H522 lung
[31] = test system: NCI/ADR-RES ovarian
[32] = test system: OVCAR-3 ovarian
[33] = test system: OVCAR-4 ovarian
[34] = test system: OVCAR-5 ovarian
[35] = test system: OVCAR-8 ovarian
[36] = test system: PC-3 prostate
[37] = test system: RPMI-8226 leukemia
[38] = test system: RXF 393 renal
[39] = test system: SF-268 CNS
[40] = test system: SF-295 CNS
[41] = test system: SF-539 CNS
[42] = test system: SK-MEL-2 melanoma
[43] = test system: SK-MEL-28 melanoma
[44] = test system: SK-MEL-5 melanoma
[45] = test system: SK-OV-3 ovarian
[46] = test system: SN12C renal
[47] = test system: SNB-19 CNS
[48] = test system: SNB-75 CNS
[49] = test system: SR leukemia
[50] = test system: SW-620 colon
[51] = test system: T-47D breast
[52] = test system: TK-10 renal
[53] = test system: U251 CNS
[54] = test system: UACC-257 melanoma
[55] = test system: UACC-62 melanoma
[56] = test system: UO-31 renal
[57] = test system: M14 melanoma

COc1cc(Nc2ccnc(NCCNc3ccnc4cc(Cl)ccc34)n2)cc(OC)c1
GI50 [1]: 1.56 µM | TGI [1]: 2.9 µM | GI50 [2]: 0.175 µM | TGI [2]: 2.2 µM | GI50 [3]: 3.23 µM | TGI [3]: 14.8 µM | GI50 [4]: 1.95 µM | TGI [4]: 5.16 µM | GI50 [5]: 1.86 µM | TGI [5]: 4.24 µM | GI50 [6]: 2.17 µM | TGI [6]: 6.59 µM | GI50 [7]: 2.45 µM | TGI [7]: 9.69 µM | GI50 [8]: 1.61 µM | TGI [8]: 3.46 µM | GI50 [9]: 4.03 µM | TGI [9]: 15.6 µM | GI50 [10]: 1.75 µM | TGI [10]: 3.78 µM | GI50 [11]: 0.83 µM | TGI [11]: 2.58 µM | GI50 [12]: 1.37 µM | TGI [12]: 3.42 µM | GI50 [13]: 2.22 µM | TGI [13]: 5.28 µM | GI50 [14]: 2.14 µM | TGI [14]: 8.36 µM | GI50 [15]: 0.811 µM | TGI [15]: 4.45 µM | GI50 [16]: 2.18 µM | TGI [16]: 5.93 µM | GI50 [17]: 0.588 µM | TGI [17]: 3.76 µM | GI50 [18]: 1.89 µM | TGI [18]: 5.56 µM | GI50 [19]: 0.843 µM | TGI [19]: 3.82 µM | GI50 [20]: 3.34 µM | TGI [20]: 14.2 µM | GI50 [21]: 1.47 µM | TGI [21]: 2.97 µM | GI50 [22]: 1.86 µM | TGI [22]: 3.69 µM | GI50 [23]: 1.61 µM | TGI [23]: 3.97 µM | GI50 [24]: 1.41 µM | TGI [24]: 3.74 µM | GI50 [25]: 1.55 µM | TGI [25]: 2.95 µM | GI50 [26]: 1.84 µM | TGI [26]: 8.9 µM | GI50 [27]: 2.95 µM | TGI [27]: 22.8 µM | GI50 [28]: 1.86 µM | TGI [28]: 14.1 µM | GI50 [29]: 1.45 µM | TGI [29]: 5.31 µM | GI50 [30]: 1.78 µM | TGI [30]: 5.19 µM | GI50 [31]: 3.79 µM | TGI [31]: 16.4 µM | GI50 [32]: 1.89 µM | TGI [32]: 5.03 µM | GI50 [33]: 1.33 µM | TGI [33]: 6.56 µM | GI50 [34]: 1.66 µM | TGI [34]: 6.27 µM | GI50 [35]: 2.52 µM | TGI [35]: 11.5 µM | GI50 [36]: 2.51 µM | TGI [36]: 14.4 µM | GI50 [37]: 1.41 µM | TGI [37]: 4.45 µM | GI50 [38]: 1.38 µM | TGI [38]: 2.94 µM | GI50 [39]: 3.1 µM | TGI [39]: 12.5 µM | GI50 [40]: 0.961 µM | TGI [40]: 2.43 µM | GI50 [41]: 1.48 µM | TGI [41]: 2.86 µM | GI50 [42]: 1.91 µM | TGI [42]: 4.18 µM | GI50 [43]: 1.76 µM | TGI [43]: 3.29 µM | GI50 [44]: 1.69 µM | TGI [44]: 3.24 µM | GI50 [45]: 8.58 µM | TGI [45]: 21 µM | GI50 [46]: 2.19 µM | TGI [46]: 12.4 µM | GI50 [47]: 2.38 µM | TGI [47]: 8.9 µM | GI50 [48]: 1.73 µM | TGI [48]: 3.52 µM | GI50 [49]: 1.65 µM | TGI [49]: 6.85 µM | GI50 [50]: 1.66 µM | TGI [50]: 4.18 µM | GI50 [51]: 1.73 µM | TGI [51]: 4.45 µM | GI50 [52]: 3.72 µM | TGI [52]: 9.71 µM | GI50 [53]: 1.61 µM | TGI [53]: 4.27 µM | GI50 [54]: 1.82 µM | TGI [54]: 3.87 µM | GI50 [55]: 1.6 µM | TGI [55]: 3.08 µM | GI50 [56]: 1.19 µM | TGI [56]: 2.81 µM

O=C(Nc1ccc2[nH]c3ccccc3c2c1)c1ccccc1Cl
GI50 [1]: 4.05 µM | TGI [1]: 51 µM | GI50 [2]: 2.32 µM | TGI [2]: 9.19 µM | GI50 [3]: 4.32 µM | TGI [3]: > 100 µM | GI50 [4]: 4.98 µM | TGI [4]: > 100 µM | GI50 [5]: 5.63 µM | TGI [5]: > 100 µM | GI50 [6]: 3.47 µM | TGI [6]: > 100 µM | GI50 [7]: 3.7 µM | TGI [7]: > 100 µM | GI50 [8]: 3.5 µM | TGI [8]: > 100 µM | GI50 [9]: 6.09 µM | TGI [9]: > 100 µM | GI50 [10]: 3.84 µM | TGI [10]: 18.5 µM | GI50 [11]: 4.86 µM | TGI [11]: > 100 µM | GI50 [12]: 2.95 µM | TGI [12]: > 100 µM | GI50 [13]: 3.07 µM | TGI [13]: > 100 µM | GI50 [14]: 59.4 µM | TGI [14]: > 100 µM | GI50 [15]: 2.84 µM | TGI [15]: > 100 µM | GI50 [16]: 3.84 µM | TGI [16]: 86.8 µM | GI50 [17]: 3.78 µM | TGI [17]: > 100 µM | GI50 [18]: 8.85 µM | TGI [18]: > 100 µM | GI50 [19]: 2.63 µM | TGI [19]: > 100 µM | GI50 [20]: 2.32 µM | TGI [20]: 11.6 µM | GI50 [21]: 3.41 µM | TGI [21]: 39 µM | GI50 [57]: 3.81 µM | TGI [57]: > 100 µM | GI50 [22]: 4.64 µM | TGI [22]: > 100 µM | GI50 [23]: 3.57 µM | TGI [23]: > 100 µM | GI50 [24]: 2.96 µM | TGI [24]: 20.4 µM | GI50 [25]: 0.969 µM | TGI [25]: > 100 µM | GI50 [26]: 5.86 µM | TGI [26]: > 100 µM | GI50 [27]: 5.53 µM | TGI [27]: > 100 µM | GI50 [28]: 12.2 µM | TGI [28]: > 100 µM | GI50 [29]: 3.75 µM | TGI [29]: > 100 µM | GI50 [30]: 2.92 µM | TGI [30]: 9.66 µM | GI50 [31]: 3.64 µM | TGI [31]: > 100 µM | GI50 [32]: 3.43 µM | TGI [32]: 12.8 µM | GI50 [33]: 6.83 µM | TGI [33]: > 100 µM | GI50 [34]: 10.3 µM | TGI [34]: > 100 µM | GI50 [35]: 6.33 µM | TGI [35]: > 100 µM | GI50 [36]: 3.31 µM | TGI [36]: > 100 µM | GI50 [37]: 4.42 µM | TGI [37]: > 100 µM | GI50 [38]: 2.49 µM | TGI [38]: 8.99 µM | GI50 [39]: 6.77 µM | TGI [39]: > 100 µM | GI50 [40]: 3.63 µM | TGI [40]: > 100 µM | GI50 [41]: 2.49 µM | TGI [41]: 7.22 µM | GI50 [42]: 5.35 µM | TGI [42]: 74.8 µM | GI50 [43]: 5.95 µM | TGI [43]: > 100 µM | GI50 [44]: 2.88 µM | TGI [44]: > 100 µM | GI50 [45]: 8.46 µM | TGI [45]: > 100 µM | GI50 [46]: 5.16 µM | TGI [46]: > 100 µM | GI50 [47]: 8.16 µM | TGI [47]: > 100 µM | GI50 [48]: 2.8 µM | TGI [48]: 24.6 µM | GI50 [49]: 2.7 µM | TGI [49]: > 100 µM | GI50 [50]: 3.91 µM | TGI [50]: > 100 µM | GI50 [51]: 8.21 µM | TGI [51]: > 100 µM | GI50 [52]: 7.25 µM | TGI [52]: > 100 µM | GI50 [53]: 4.62 µM | TGI [53]: > 100 µM | GI50 [55]: 6.53 µM | TGI [55]: > 100 µM | GI50 [56]: 5.2 µM | TGI [56]: > 100 µM
